Data published in ChEMBL document CHEMBL1124998, “3-(2-carboxyindol-3-yl)propionic acid derivatives: antagonists of the strychnine-insensitive glycine receptor associated with the N-methyl-D-aspartate receptor complex” (J Med Chem, 1990).

Columns and labels:
Rattus norvegicus = organism: Rattus norvegicus; assay: Activity was determined by inhibition of glutamate stimulated accumulation of cyclic GMP in neonatal rat cerebral slices.; type: functional
[1] = target: Glutamate NMDA receptor (Rattus norvegicus) (UniProt P35439+Q00959+Q00960+Q00961+Q62645+Q8VHN2+Q9R1M7); assay: Selectivity ratio for CPP and gly NMDA binding; type: protein-complex assay
Glutamate NMDA receptor [2] = assay: Activity against rat cortical and hippocampal membrane strychnine-insensitive N-methyl-D-aspartate glutamate receptor 1 using [3H]-gly; type: tissue-based, Hippocampus
Glutamate NMDA receptor [3] = assay: Activity against rat cortical and hippocampal membrane N-methyl-D-aspartate glutamate receptor 1/2A/2B/2C/2D using [3H]CPP; type: tissue-based, Hippocampus

Row | SMILES | IC50 (Rattus norvegicus) | Ratio [1] | IC50 (Glutamate NMDA receptor [2]) | IC50 (Glutamate NMDA receptor [3])
1 | O=C(O)c1cc(=O)c2ccccc2[nH]1 [TRANSTORINE] | 167 µM | – | – | –
2 | O=C(O)CCc1c(C(=O)O)[nH]c2cc(Cl)cc(Cl)c12 | 5 µM | 2550 | 0.14 µM | 358 µM
3 | O=C(O)CCc1c(C(=O)O)[nH]c2cccc(Cl)c12 | – | 10 | 6 µM | 59 µM
4 | O=C(O)c1cc2c(Cl)cc(Cl)cc2[nH]1 | – | > 150 | 6 µM | > 1000 µM
5 | O=C(O)c1cc2ccccc2[nH]1 [INDOLE-2-CARBOXYLIC ACID] | – | 40 | 106 µM | 4200 µM
6 | O=C(O)CCc1c(C(=O)O)[nH]c2ccc(Cl)cc12 | – | 1.8 | 14 µM | 25 µM
7 | O=C(O)c1cc(O)c2c(Cl)cc(Cl)cc2n1 | 2.5 µM | 150 | 0.08 µM | 12 µM
8 | O=C(O)CCc1c(C(=O)O)[nH]c2ccccc12 | – | 1 | 30 µM | 34 µM
9 | O=C(O)c1cc(O)c2ccc(Cl)cc2n1 [7-CHLOROKYNURENIC ACID] | 8 µM | 405 | 0.4 µM | 162 µM
10 | O=C(O)CCc1c(C(=O)O)[nH]c2cc(Cl)ccc12 | – | 105 | 2.7 µM | 283 µM
11 | O=C(O)CCc1c(C(=O)O)[nH]c2c(Cl)cccc12 | – | > 1 | 90 µM | > 100 µM
